Tests used:
Assay type in all cases: binding
[1] = molecular target: Torpedo AChR αγ subunit combination (Tetronarce californica, UniProt P02710+P02714); experiment: biochemical
[2] = molecular target: Torpedo AChR αδ subunit combination (Tetronarce californica, UniProt P02710+P02718); experiment: biochemical
[3] = molecular target: native Torpedo AChR (all four subunits) (Tetronarce californica, UniProt P02710+P02714+P02718); settings: extracts of oocytes expressing all four AChR subunits; Fig. 1 A
Chain of native Torpedo AChR (all four subunits) (P02710 25-461): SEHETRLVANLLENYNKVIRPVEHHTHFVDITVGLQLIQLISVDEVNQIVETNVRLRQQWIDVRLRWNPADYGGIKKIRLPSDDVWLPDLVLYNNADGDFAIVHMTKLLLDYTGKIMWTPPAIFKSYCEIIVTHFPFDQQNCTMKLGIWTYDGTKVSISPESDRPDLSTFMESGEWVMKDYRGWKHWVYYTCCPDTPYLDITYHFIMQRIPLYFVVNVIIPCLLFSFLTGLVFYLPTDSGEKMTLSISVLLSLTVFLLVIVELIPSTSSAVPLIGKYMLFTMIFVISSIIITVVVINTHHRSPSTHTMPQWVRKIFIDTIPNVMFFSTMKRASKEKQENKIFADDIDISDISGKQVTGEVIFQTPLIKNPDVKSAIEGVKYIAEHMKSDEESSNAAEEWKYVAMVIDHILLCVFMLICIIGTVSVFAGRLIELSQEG
Chain of native Torpedo AChR (all four subunits) (P02712 25-493, further chain): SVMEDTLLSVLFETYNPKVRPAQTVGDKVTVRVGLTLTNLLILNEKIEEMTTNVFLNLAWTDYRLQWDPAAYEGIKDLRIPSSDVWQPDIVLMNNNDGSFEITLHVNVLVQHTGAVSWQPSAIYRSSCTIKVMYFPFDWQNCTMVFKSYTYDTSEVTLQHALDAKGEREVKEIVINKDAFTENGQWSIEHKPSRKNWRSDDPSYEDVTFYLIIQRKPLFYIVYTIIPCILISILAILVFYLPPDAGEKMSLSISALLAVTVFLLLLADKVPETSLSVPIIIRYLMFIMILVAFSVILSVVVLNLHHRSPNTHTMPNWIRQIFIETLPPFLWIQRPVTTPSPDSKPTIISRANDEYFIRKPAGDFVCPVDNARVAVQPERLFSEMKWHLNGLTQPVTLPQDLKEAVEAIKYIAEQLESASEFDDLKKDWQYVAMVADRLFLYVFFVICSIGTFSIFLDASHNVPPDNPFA
Chain of native Torpedo AChR (all four subunits) (P02718 22-522): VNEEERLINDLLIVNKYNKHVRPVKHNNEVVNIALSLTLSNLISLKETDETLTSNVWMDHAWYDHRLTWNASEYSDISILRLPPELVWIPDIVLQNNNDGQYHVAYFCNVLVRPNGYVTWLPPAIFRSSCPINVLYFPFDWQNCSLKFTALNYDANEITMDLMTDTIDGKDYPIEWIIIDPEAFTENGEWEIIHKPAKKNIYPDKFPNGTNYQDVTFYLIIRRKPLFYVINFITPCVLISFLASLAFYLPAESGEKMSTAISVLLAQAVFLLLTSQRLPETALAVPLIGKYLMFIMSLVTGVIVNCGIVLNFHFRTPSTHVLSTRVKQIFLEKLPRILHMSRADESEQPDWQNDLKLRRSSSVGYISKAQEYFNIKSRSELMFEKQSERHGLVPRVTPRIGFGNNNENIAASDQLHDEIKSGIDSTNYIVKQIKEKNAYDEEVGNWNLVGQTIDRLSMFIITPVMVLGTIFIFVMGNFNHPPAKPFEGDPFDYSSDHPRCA
Chain of native Torpedo AChR (all four subunits) (P02714 18-506): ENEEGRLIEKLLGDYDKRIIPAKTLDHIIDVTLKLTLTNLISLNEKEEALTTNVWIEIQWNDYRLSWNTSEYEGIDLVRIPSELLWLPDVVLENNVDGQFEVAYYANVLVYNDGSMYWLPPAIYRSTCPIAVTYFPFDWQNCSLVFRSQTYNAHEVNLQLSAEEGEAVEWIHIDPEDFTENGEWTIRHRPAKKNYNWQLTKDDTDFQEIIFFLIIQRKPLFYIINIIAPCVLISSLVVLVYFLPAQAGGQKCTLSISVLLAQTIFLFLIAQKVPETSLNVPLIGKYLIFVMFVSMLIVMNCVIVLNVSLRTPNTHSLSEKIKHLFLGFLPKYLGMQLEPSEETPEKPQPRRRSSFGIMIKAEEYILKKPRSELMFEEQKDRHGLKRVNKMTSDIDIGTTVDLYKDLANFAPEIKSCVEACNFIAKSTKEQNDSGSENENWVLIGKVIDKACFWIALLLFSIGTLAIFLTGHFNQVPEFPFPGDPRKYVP

Chain of Torpedo AChR αγ subunit combination (P02710 25-461): as the sequence (P02710 25-461) above
Chain of Torpedo AChR αγ subunit combination (P02714 18-506): as the sequence (P02714 18-506) above
Chain of Torpedo AChR αδ subunit combination (P02718 22-522): as the sequence (P02718 22-522) above
Chain of Torpedo AChR αδ subunit combination (P02710 25-461): as the sequence (P02710 25-461) above

## COc1cc2c3cc1Oc1cc(ccc1O)C[C@@H]1c4c(cc(OC)c(O)c4Oc4ccc(cc4)C[C@@H]3N(C)CC2)CC[N+]1(C)C [curare]
[1]
  IC50: ~20 µM
[2]
  IC50: 200 µM
[3]
  shape of curare inhibition curve of αBgt binding: biphasic curve

Reference: publication PMC2288882 (The Journal of Cell Biology, 1991)
